Measurements from PubChem BioAssay (NCI).
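In this assay, cells in 96-well plates receive the compound at five concentrations for 48 hours. Endpoints are linearly interpolated between the surrounding concentrations. At the GI50, growth is halved. At the TGI there is no net growth.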

Tests used:
Experiment in all cases: DTP human tumour cell line panel, 48 h
CAKI-1 renal = system: CAKI-1 renal
SR leukemia = system: SR leukemia
NCI-H460 lung = system: NCI-H460 lung
IGROV1 ovarian = system: IGROV1 ovarian
DU-145 prostate = system: DU-145 prostate
HCC-2998 colon = system: HCC-2998 colon
SNB-19 CNS = system: SNB-19 CNS
UO-31 renal = system: UO-31 renal
UACC-62 melanoma = system: UACC-62 melanoma
EKVX NSCLC = system: EKVX NSCLC
OVCAR-4 ovarian = system: OVCAR-4 ovarian
HCT-15 colon = system: HCT-15 colon
TK-10 renal = system: TK-10 renal
SNB-75 CNS = system: SNB-75 CNS
SK-MEL-5 melanoma = system: SK-MEL-5 melanoma

Compound	TGI (CAKI-1 renal) [µM]	TGI (SR leukemia) [µM]	TGI (NCI-H460 lung) [µM]	TGI (IGROV1 ovarian) [µM]	TGI (DU-145 prostate) [µM]	TGI (HCC-2998 colon) [µM]	TGI (SNB-19 CNS) [µM]	TGI (UO-31 renal) [µM]	TGI (UACC-62 melanoma) [µM]	TGI (EKVX NSCLC) [µM]	TGI (OVCAR-4 ovarian) [µM]	TGI (HCT-15 colon) [µM]	TGI (TK-10 renal) [µM]	TGI (SNB-75 CNS) [µM]	TGI (SK-MEL-5 melanoma) [µM]	GI50 (CAKI-1 renal) [µM]	GI50 (NCI-H460 lung) [µM]	GI50 (EKVX NSCLC) [µM]	GI50 (HCT-15 colon) [µM]	GI50 (SK-MEL-5 melanoma) [µM]
COCCOC(=O)C(C)=[N+]=[N-]	> 100	> 100	> 100	> 100	> 100	> 100	> 100	> 100	> 100	> 100	> 100	> 100	> 100	> 100	> 100					
CC(C)C(NCc1c(O)ccc2c(-c3ccccc3)cc(=O)oc12)C(=O)O (stereo not given)	> 100	> 100	> 100	> 100	> 100	> 100	> 100	> 100	> 100	> 100	> 100	> 100	> 100	> 100	> 100					
CC1(C)O[C@@H](CBr)C[C@H](C[C@H]2C[C@@H](O)C[C@@H](CCOCc3ccccc3)O2)O1	51.3	> 100	87.1	42.6	61.8	53.7	61.8	43.5	34.4	33	41.7	57.1	38.3	36.9	> 100					
COc1ccc(C(=O)Nc2ccc3oc(-c4ccccc4)nc3c2)cc1	> 100	> 100	> 100	> 100	> 100	> 100	> 100	0.838	> 100	> 100	> 100	> 100	> 100	89.8	> 100					
O=c1[nH]c2c(c(=O)[nH]1)SSC2	44.5	2.09	27.2	56.8	28.9	30.5	> 81.3	24.2	9.14	> 81.4	31.4	> 91.9	29.9	34.8	29.1					
COC(=O)c1c(-c2ccccc2)c2sc3ccccc3n2c1N	> 100	> 100	> 100	> 100	> 100	> 100	> 100	> 100	> 100	> 100	> 100	> 100	> 100	> 100	> 100					
CC1=NN(C(=O)CC(=O)Nc2cccc(Cl)c2)C(=O)C1N=Nc1ccc(C(=O)O)cc1 (stereo not given)	> 100	> 100	> 100	> 100	> 100	> 100	> 100	> 100	> 100	> 100	> 100	> 100	> 100	> 100	> 100					
COc1ccc(CCNC(=O)[C@H]2CCCC[C@@H]2CCO)cc1OC	> 100	> 100	> 100	> 100	> 100	> 100	> 100	> 100	> 100	> 100	> 100	> 100	> 100	> 100	> 100					
CC(=O)ON(C(C)=O)c1ccc(-c2nc3ccccc3s2)cc1C	> 100	> 100	> 100	> 100	> 100	> 100	> 100	> 100	> 100	> 100	> 100	> 100	> 100	> 100	> 100					
CCOC(=O)/C(C#N)=C/c1ccc2c(c1)CC1(C2)Cc2cc(CC)c(C(C)O)cc2C1 (stereo not given)	> 100	> 28.9	77.1	57	56.1	> 80.9	43.8	60.8	29.5	> 100	49	20	84.2	46.3	16.8					
Cc1cc(-c2nc3cccc(F)c3s2)ccc1N	> 100	> 74.8	> 100	> 100	> 100	> 100	> 100	> 100	> 100	> 100	> 100	> 100	> 100	99.4	> 100					
O=C(CSC1=NNC2(C(=O)N1)c1ccccc1-c1ccccc12)NC(=S)Nc1ccccc1	> 10	> 10	> 10	> 10	> 10	> 10	> 10	> 10	> 10	> 10	> 10	> 10	> 10	> 10	> 10					
Nc1nc(N)c2nc(CNc3ccc(C(=O)NC(CCCCNC(=O)c4ccccc4C(=O)O)C(=O)O)cc3)cnc2n1 (stereo not given)	> 100	> 100	> 100	> 100	> 100	> 100	> 100	> 100	> 100	> 100	> 100	> 100	> 100	> 100	> 100	0.0237	0.00424	0.036	0.00522	0.0913
CC1=NN=C(N)NC1=CC(Sc1ccc(Cl)cc1)c1c(O)ccc2ccccc12 (stereo not given)	> 69.6	> 100	45.1	37.3	> 84.6	32.2	> 74.9	> 67.6	25.9	69	> 64.7	> 63.3	> 100	70.2	21.2					
